Data: patent publication US9580444B2, “Polycyclic pyrazolinone derivative and herbicide comprising same as effective component thereof” (priority 2013, dated 2017)

Legend:
Test in all cases: Test Example-1: herbicidal effect by a treatment before weeds are generated under submerged conditions
Assay type in all cases: in vivo
Settings in all cases: 500 g a.i/ha, pre-emergence treatment, about 15 days after treatment, score 0-5
[1] = tested on: Monochoria vaginalis (monochoria)
Procedure: (§1) Using the formulation prepared according to the methods described above, the herbicidal effect of the bicyclic pyrazolinone derivative of the invention according to the methods shown in Test Examples below was examined. The herbicidal effect with respect to the test weeds or the phytotoxicity with respect to the test crops was examined according to the following criteria, and evaluated in six stage scores of 0 to 5.
(§2) A plastic cup of 30 cm^2 was filled with paddy soil, soil puddling was performed, seeds of Echinochloa oryzicola (barnyard grass), Cyperus difformis (smallflower umbrella plant), Monochoria vaginalis (monochoria), Scirpus juncoides (bulrush), and Eleocharis acicularis (needle spikerush), and Lindernia procumbens (common false pimpernel), Rotala indica (indian toothcup), Elatine triandra (waterwort) as other annual broad leaf weeds were seeded therein, and kept in a submerged state. A wettable powder or an emulsifiable concentrate of the compound of the present invention prepared according to Formulation Example was diluted on the weed seeding day, and a submersing treatment was performed so as to be a predetermined dosage. The herbicidal effect with respect to the test weeds about 15 days after the treatment was evaluated according to the evaluation criteria in six stages of 0 to 5 described above.

[2] = tested on: other annual broad leaf weeds (Lindernia procumbens, Rotala indica, Elatine triandra)
Procedure: as §1, §2

[3] = tested on: Echinochloa oryzicola (barnyard grass)
Procedure: as §1, §2

[4] = tested on: Eleocharis acicularis (needle spikerush)
Procedure: as §1, §2

[5] = tested on: Cyperus difformis (smallflower umbrella plant)
Procedure: as §1, §2

[6] = tested on: Scirpus juncoides (bulrush)
Procedure: as §1, §2

Structure (SMILES) | Herbicidal effect Monochoria vaginalis [1] | Herbicidal effect Broadleaf weed [2] | Herbicidal effect Echinochloa oryzicola [3] | Herbicidal effect Eleocharis acicularis [4] | Herbicidal effect Cyperus difformis [5] | Herbicidal effect Scirpus juncoides [6]
COC(=O)COc1ccccc1Oc1cc(-c2c(Cl)n3n(c2=O)CCCC3)c(F)cc1Cl [Compound 3-16] | 5 (Herbicidal effect/phytotoxicity was 90% or greater) | 5 (Herbicidal effect/phytotoxicity was 90% or greater) | 5 (Herbicidal effect/phytotoxicity was 90% or greater) | 5 (Herbicidal effect/phytotoxicity was 90% or greater) | 5 (Herbicidal effect/phytotoxicity was 90% or greater) | 5 (Herbicidal effect/phytotoxicity was 90% or greater)
N#CCOc1ccc(Oc2cc(-c3c(Cl)n4n(c3=O)CCCC4)c(F)cc2Cl)cc1 [Compound 3-20] | 5 (Herbicidal effect/phytotoxicity was 90% or greater) | 5 (Herbicidal effect/phytotoxicity was 90% or greater) | 5 (Herbicidal effect/phytotoxicity was 90% or greater) | 5 (Herbicidal effect/phytotoxicity was 90% or greater) | 5 (Herbicidal effect/phytotoxicity was 90% or greater) | 5 (Herbicidal effect/phytotoxicity was 90% or greater)
C=CCOC(=O)C=C(COc1ccccc1Oc1cc(-c2c(Cl)n3n(c2=O)CCCC3)c(F)cc1Cl)OCC [Compound 3-25] | 5 (Herbicidal effect/phytotoxicity was 90% or greater) | 5 (Herbicidal effect/phytotoxicity was 90% or greater) | 5 (Herbicidal effect/phytotoxicity was 90% or greater) | 5 (Herbicidal effect/phytotoxicity was 90% or greater) | 5 (Herbicidal effect/phytotoxicity was 90% or greater) | 5 (Herbicidal effect/phytotoxicity was 90% or greater)
C=C(COc1ccccc1Oc1cc(-c2c(Cl)n3n(c2=O)CCCC3)c(F)cc1Cl)c1cccc(Cl)c1 [Compound 3-26] | 5 (Herbicidal effect/phytotoxicity was 90% or greater) | 5 (Herbicidal effect/phytotoxicity was 90% or greater) | 5 (Herbicidal effect/phytotoxicity was 90% or greater) | 5 (Herbicidal effect/phytotoxicity was 90% or greater) | 5 (Herbicidal effect/phytotoxicity was 90% or greater) | 5 (Herbicidal effect/phytotoxicity was 90% or greater)
C=CCOc1ccccc1Oc1cc(-c2c(Cl)n3n(c2=O)CCCC3)c(F)cc1Cl [Compound 3-27] | 5 (Herbicidal effect/phytotoxicity was 90% or greater) | 5 (Herbicidal effect/phytotoxicity was 90% or greater) | 5 (Herbicidal effect/phytotoxicity was 90% or greater) | 5 (Herbicidal effect/phytotoxicity was 90% or greater) | 5 (Herbicidal effect/phytotoxicity was 90% or greater) | 5 (Herbicidal effect/phytotoxicity was 90% or greater)
C=CCOc1ccc(Oc2cc(-c3c(Cl)n4n(c3=O)CCCC4)c(F)cc2Cl)cc1 [Compound 3-29] | 5 (Herbicidal effect/phytotoxicity was 90% or greater) | 5 (Herbicidal effect/phytotoxicity was 90% or greater) | 5 (Herbicidal effect/phytotoxicity was 90% or greater) | 5 (Herbicidal effect/phytotoxicity was 90% or greater) | 5 (Herbicidal effect/phytotoxicity was 90% or greater) | 5 (Herbicidal effect/phytotoxicity was 90% or greater)
C#CC(C)Oc1ccccc1Oc1cc(-c2c(Cl)n3n(c2=O)CCCC3)c(F)cc1Cl (stereo not drawn) [Compound 3-31] | 5 (Herbicidal effect/phytotoxicity was 90% or greater) | 5 (Herbicidal effect/phytotoxicity was 90% or greater) | 5 (Herbicidal effect/phytotoxicity was 90% or greater) | 5 (Herbicidal effect/phytotoxicity was 90% or greater) | 5 (Herbicidal effect/phytotoxicity was 90% or greater) | 5 (Herbicidal effect/phytotoxicity was 90% or greater)
COc1cc(F)ccc1Oc1cc(-c2c(Cl)n3n(c2=O)CCCC3)c(F)cc1Cl [Compound 3-33] | 5 (Herbicidal effect/phytotoxicity was 90% or greater) | 5 (Herbicidal effect/phytotoxicity was 90% or greater) | 5 (Herbicidal effect/phytotoxicity was 90% or greater) | 5 (Herbicidal effect/phytotoxicity was 90% or greater) | 5 (Herbicidal effect/phytotoxicity was 90% or greater) | 5 (Herbicidal effect/phytotoxicity was 90% or greater)
C=CCOc1cc(F)ccc1Oc1cc(-c2c(Cl)n3n(c2=O)CCCC3)c(F)cc1Cl [Compound 3-34] | 5 (Herbicidal effect/phytotoxicity was 90% or greater) | 5 (Herbicidal effect/phytotoxicity was 90% or greater) | 5 (Herbicidal effect/phytotoxicity was 90% or greater) | 5 (Herbicidal effect/phytotoxicity was 90% or greater) | 5 (Herbicidal effect/phytotoxicity was 90% or greater) | 5 (Herbicidal effect/phytotoxicity was 90% or greater)
COc1cc(Cl)ccc1Oc1cc(-c2c(Cl)n3n(c2=O)CCCC3)c(F)cc1Cl [Compound 3-37] | 5 (Herbicidal effect/phytotoxicity was 90% or greater) | 5 (Herbicidal effect/phytotoxicity was 90% or greater) | 5 (Herbicidal effect/phytotoxicity was 90% or greater) | 5 (Herbicidal effect/phytotoxicity was 90% or greater) | 5 (Herbicidal effect/phytotoxicity was 90% or greater) | 5 (Herbicidal effect/phytotoxicity was 90% or greater)
C=CCOc1cc(Cl)ccc1Oc1cc(-c2c(Cl)n3n(c2=O)CCCC3)c(F)cc1Cl [Compound 3-38] | 5 (Herbicidal effect/phytotoxicity was 90% or greater) | 5 (Herbicidal effect/phytotoxicity was 90% or greater) | 5 (Herbicidal effect/phytotoxicity was 90% or greater) | 5 (Herbicidal effect/phytotoxicity was 90% or greater) | 5 (Herbicidal effect/phytotoxicity was 90% or greater) | 5 (Herbicidal effect/phytotoxicity was 90% or greater)
C#CCOc1cc(Cl)ccc1Oc1cc(-c2c(Cl)n3n(c2=O)CCCC3)c(F)cc1Cl [Compound 3-39] | 5 (Herbicidal effect/phytotoxicity was 90% or greater) | 5 (Herbicidal effect/phytotoxicity was 90% or greater) | 5 (Herbicidal effect/phytotoxicity was 90% or greater) | 5 (Herbicidal effect/phytotoxicity was 90% or greater) | 5 (Herbicidal effect/phytotoxicity was 90% or greater) | 5 (Herbicidal effect/phytotoxicity was 90% or greater)
CC1(COc2cc(-c3c(Cl)n4n(c3=O)CCCC4)c(F)cc2Cl)CC(c2ccccc2F)=NO1 (stereo not drawn) [Compound 4-3] | 5 (Herbicidal effect/phytotoxicity was 90% or greater) | 5 (Herbicidal effect/phytotoxicity was 90% or greater) | 5 (Herbicidal effect/phytotoxicity was 90% or greater) | 5 (Herbicidal effect/phytotoxicity was 90% or greater) | 5 (Herbicidal effect/phytotoxicity was 90% or greater) | 5 (Herbicidal effect/phytotoxicity was 90% or greater)
CC1(COc2cc(-c3c(Cl)n4n(c3=O)CCCC4)c(F)cc2Cl)CC(c2ccc(F)cc2)=NO1 (stereo not drawn) [Compound 4-7] | 5 (Herbicidal effect/phytotoxicity was 90% or greater) | 5 (Herbicidal effect/phytotoxicity was 90% or greater) | 5 (Herbicidal effect/phytotoxicity was 90% or greater) | 5 (Herbicidal effect/phytotoxicity was 90% or greater) | 5 (Herbicidal effect/phytotoxicity was 90% or greater) | 5 (Herbicidal effect/phytotoxicity was 90% or greater)
O=c1c(-c2ccc(F)cc2F)c(Cl)n2n1CCCC2 [Example 1-75] | 5 (Herbicidal effect/phytotoxicity was 90% or greater) | 5 (Herbicidal effect/phytotoxicity was 90% or greater) | 5 (Herbicidal effect/phytotoxicity was 90% or greater) | 5 (Herbicidal effect/phytotoxicity was 90% or greater) | 5 (Herbicidal effect/phytotoxicity was 90% or greater) | 5 (Herbicidal effect/phytotoxicity was 90% or greater)
